ChEMBL document CHEMBL3885881, “DrugMatrix”

Organism: Rattus norvegicus
Experiment: DrugMatrix - Regimen: Daily Repeat
Type: toxicity, organism-based, Sprague-Dawley
Parameters: regimen Daily Repeat, gender Male, age 6-8 weeks
Settings: in vivo, sc, route subcutaneous, […]; for ABSOLUTE BASOPHIL / ABSOLUTE EOSINOPHIL / ABSOLUTE LYMPHOCYTE / ABSOLUTE MONOCYTE / ABSOLUTE SEGMENTED NEUTROPHIL / BASOPHIL / EOSINOPHIL / ERYTHROCYTE COUNT / HEMATOCRIT / LEUKOCYTE COUNT / MEAN CORPUSCULAR HEMOGLOBIN / MEAN CORPUSCULAR HEMOGLOBIN CONCENTRATION / MEAN CORPUSCULAR VOLUME / MONOCYTE / NEUTROPHIL / NUCLEATED RED BLOOD CELLS / PLATELET COUNT: tissue Blood; for ALANINE AMINOTRANSFERASE / ALBUMIN / ALKALINE PHOSPHATASE / ASPARTATE AMINOTRANSFERASE / BLOOD UREA NITROGEN / CHLORIDE / CHOLESTEROL / CREATINE PHOSPHOKINASE / CREATININE / GLUCOSE / LACTATE DEHYDROGENASE / LIPASE / PHOSPHORUS / POTASSIUM / TOTAL BILIRUBIN / URIC ACID: tissue Plasma
[1] = 0 mg/kg, 72 h, dose level Control, time 3 day
[2] = 0 mg/kg, 120 h, dose level Control, time 5 day
[3] = 79 mg/kg, 72 h, dose level High, time 3 day

C[C@H]1C[C@H]2[C@@H]3CCC4=CC(=O)C=C[C@]4(C)[C@@]3(F)[C@@H](O)C[C@]2(C)[C@@]1(O)C(=O)CO [BETAMETHASONE]
ABSOLUTE BASOPHIL [1]: 0 CELLS/uL | ABSOLUTE EOSINOPHIL [1]: 0 CELLS/uL | ABSOLUTE LYMPHOCYTE [1]: 10887 CELLS/uL | ABSOLUTE MONOCYTE [1]: 56 CELLS/uL | ABSOLUTE SEGMENTED NEUTROPHIL [1]: 1057 CELLS/uL | BASOPHIL [1]: 0% | EOSINOPHIL [1]: 0% | ERYTHROCYTE COUNT [1]: 5.31 x10E6/uL | HEMATOCRIT [1]: 33.78% | LEUKOCYTE COUNT [1]: 12 x10E3/uL | MEAN CORPUSCULAR HEMOGLOBIN [1]: 25.25 pg | MEAN CORPUSCULAR HEMOGLOBIN CONCENTRATION [1]: 39.65 G/DL | MEAN CORPUSCULAR VOLUME [1]: 63.65 fL | MONOCYTE [1]: 0.5% | NEUTROPHIL [1]: 8.33% | NUCLEATED RED BLOOD CELLS [1]: 0 /100WBC | PLATELET COUNT [1]: 1142 x10E3/uL | ALANINE AMINOTRANSFERASE [1]: 57.17 u/L | ALBUMIN [1]: 4.28 G/DL | ALKALINE PHOSPHATASE [1]: 425.83 u/L | ASPARTATE AMINOTRANSFERASE [1]: 93.83 u/L | BLOOD UREA NITROGEN [1]: 14.17 mg/dL | CHLORIDE [1]: 100 MEQ/L | CHOLESTEROL [1]: 70.33 mg/dL | CREATINE PHOSPHOKINASE [1]: 438.67 u/L | CREATININE [1]: 0.19 mg/dL | GLUCOSE [1]: 138.5 mg/dL | LACTATE DEHYDROGENASE [1]: 190.17 u/L | LIPASE [1]: 9.83 u/L | PHOSPHORUS [1]: 11.05 mg/dL | POTASSIUM [1]: 6.59 MEQ/L | TOTAL BILIRUBIN [1]: 0.22 mg/dL | URIC ACID [1]: 1.3 mg/dL | ABSOLUTE BASOPHIL [2]: 0 CELLS/uL | ABSOLUTE EOSINOPHIL [2]: 91.17 CELLS/uL | ABSOLUTE LYMPHOCYTE [2]: 11847.67 CELLS/uL | ABSOLUTE MONOCYTE [2]: 172.83 CELLS/uL | ABSOLUTE SEGMENTED NEUTROPHIL [2]: 1105 CELLS/uL | BASOPHIL [2]: 0% | EOSINOPHIL [2]: 0.67% | ERYTHROCYTE COUNT [2]: 5.35 x10E6/uL | HEMATOCRIT [2]: 33.65% | LEUKOCYTE COUNT [2]: 13.22 x10E3/uL | MEAN CORPUSCULAR HEMOGLOBIN [2]: 25.12 pg | MEAN CORPUSCULAR HEMOGLOBIN CONCENTRATION [2]: 39.9 G/DL | MEAN CORPUSCULAR VOLUME [2]: 63 fL | MONOCYTE [2]: 1.33% | NEUTROPHIL [2]: 8.17% | NUCLEATED RED BLOOD CELLS [2]: 0 /100WBC | PLATELET COUNT [2]: 1347.83 x10E3/uL | ALANINE AMINOTRANSFERASE [2]: 50 u/L | ALBUMIN [2]: 4.1 G/DL | ALKALINE PHOSPHATASE [2]: 329.17 u/L | ASPARTATE AMINOTRANSFERASE [2]: 77.17 u/L | BLOOD UREA NITROGEN [2]: 16.83 mg/dL | CHLORIDE [2]: 99.83 MEQ/L | CHOLESTEROL [2]: 75.67 mg/dL | CREATINE PHOSPHOKINASE [2]: 295.83 u/L | CREATININE [2]: 0.18 mg/dL | GLUCOSE [2]: 156.33 mg/dL | LACTATE DEHYDROGENASE [2]: 166.83 u/L | LIPASE [2]: 9.83 u/L | PHOSPHORUS [2]: 12.18 mg/dL | POTASSIUM [2]: 6.69 MEQ/L | TOTAL BILIRUBIN [2]: 0.22 mg/dL | URIC ACID [2]: 1.6 mg/dL | ABSOLUTE BASOPHIL [3]: 0 CELLS/uL | ABSOLUTE EOSINOPHIL [3]: 18 CELLS/uL | ABSOLUTE LYMPHOCYTE [3]: 1334 CELLS/uL | ABSOLUTE MONOCYTE [3]: 44 CELLS/uL | ABSOLUTE SEGMENTED NEUTROPHIL [3]: 3004 CELLS/uL | BASOPHIL [3]: 0% | EOSINOPHIL [3]: 0.33% | ERYTHROCYTE COUNT [3]: 5.69 x10E6/uL | HEMATOCRIT [3]: 36.67% | LEUKOCYTE COUNT [3]: 4.4 x10E3/uL | MEAN CORPUSCULAR HEMOGLOBIN [3]: 25.27 pg | MEAN CORPUSCULAR HEMOGLOBIN CONCENTRATION [3]: 39.2 G/DL | MEAN CORPUSCULAR VOLUME [3]: 64.47 fL | MONOCYTE [3]: 1% | NEUTROPHIL [3]: 69% | NUCLEATED RED BLOOD CELLS [3]: 0 /100WBC | PLATELET COUNT [3]: 1406 x10E3/uL | ALANINE AMINOTRANSFERASE [3]: 146.33 u/L | ALBUMIN [3]: 5.37 G/DL | ALKALINE PHOSPHATASE [3]: 302 u/L | ASPARTATE AMINOTRANSFERASE [3]: 178 u/L | BLOOD UREA NITROGEN [3]: 25 mg/dL | CHLORIDE [3]: 96.67 MEQ/L | CHOLESTEROL [3]: 124.33 mg/dL | CREATINE PHOSPHOKINASE [3]: 219.33 u/L | CREATININE [3]: 0.27 mg/dL | GLUCOSE [3]: 443 mg/dL | LACTATE DEHYDROGENASE [3]: 492.67 u/L | LIPASE [3]: 12.67 u/L | PHOSPHORUS [3]: 11.8 mg/dL | POTASSIUM [3]: 6.32 MEQ/L | TOTAL BILIRUBIN [3]: 0.2 mg/dL | URIC ACID [3]: 1.43 mg/dL
